Columns and labels:
melanoma cell = conditions: ref [31]; cited from earlier work
[1] = tested on: burns and acute infections; conditions: ref [26], [27]; cited from earlier work
[2] = tested on: wild-type E. coli strain (pBWU13.4/DK8); assay: Growth of wild-type E. coli in the presence of venom peptides; assay type: cell-based, Escherichia coli; conditions: wild-type in comparison to null strain
[3] = tested on: null E. coli strain (pUC118/DK8); assay: Growth of null E. coli in the presence of venom peptides; assay type: cell-based, Escherichia coli; conditions: null strain in comparison to wild-type
Pseudomonas aeruginosa = conditions: ref [26], [27], cited from earlier work
erythrocytes = conditions: ref [26], [27]; cited from earlier work
Staphylococcus aureus = conditions: ref [26], [27], cited from earlier work
P. aeruginosa = conditions: rat models; ref [26], [27]; cited from earlier work
Escherichia coli = conditions: ref [26], [27]; cited from earlier work
[4] = ref [26], [27]; cited from earlier work
[5] = tested on: wild-type membrane bound F1Fo ATP synthase; assay: Inhibition of membrane bound F1Fo ATPase activity by venom peptides; assay type: biochemical, Escherichia coli; conditions: 60 min preincubation at RT, pH 8.0; Fig. 2
[6] = tested on: human pathogenic bacteria; multi-drug resistant bacterial strains; conditions: broad spectrum of microbes; ref [26], [27]; cited from earlier work
E. coli ATP synthase = conditions: ref [18], [19]; cited from earlier work
E. coli = conditions: ref [18], [19]; cited from earlier work

Row | Substance | melanoma cell proliferation (melanoma cell) | effectiveness in burns and acute infections [1] | inhibition of wild-type E. coli (in words) [2] | inhibition of null E. coli (in words) [3] | effectiveness against drug-resistant Pseudomonas aeruginosa (Pseudomonas aeruginosa; drug-resistant) | time to kill P. aeruginosa (Pseudomonas aeruginosa) | hemolytic activity (erythrocytes) | effectiveness against drug-resistant Staphylococcus aureus (Staphylococcus aureus; drug-resistant) | time to kill S. aureus (Staphylococcus aureus) | P. aeruginosa colony formation (P. aeruginosa) | subsequent infection and inflammation (P. aeruginosa) | effectiveness against drug-resistant Escherichia coli (Escherichia coli) | cytotoxic activity [4] | inhibition of ATP synthase (in words) [5] | antimicrobial activity in comparison to gentamicin, ampicillin, or bacitracin [6] | inhibition of E. coli ATP synthase (E. coli ATP synthase) | E. coli growth (E. coli)
1 | KFFRKLKKSVKKRAKEFFKKPRVIGVSIPF [BF-30] | selectively inhibit melanoma cell proliferation | effective | potent inhibition | partial inhibition | effective | less than 120 minutes | no obvious hemolytic | effective | less than 120 minutes | significantly reduced | prevented | effective | no obvious hemolytic or cytotoxic activity | strong inhibition of ATP synthase | stronger antimicrobial activity | – | –
2 | melittin | – | – | – | – | – | – | – | – | – | – | – | – | – | – | – | potently inhibit | abrogation of E. coli growth
